Test results reported in ChEMBL document CHEMBL1126166, “Synthesis of the -phosphonic acid analogue of kainic acid” (Bioorg Med Chem Lett, 1992).

Molecular target: Glutamate receptor ionotropic, kainate (Rattus norvegicus) (UniProt P22756+Q01812+P42260+P42264+Q63273)
Test: Compound was evaluated for the inhibition of kainate receptor binding at 10 uM
Type: protein-complex assay

inhibition: 77%
Compound: C=C(C)[C@H]1CN[C@H](C(=O)O)[C@H]1CP(=O)(O)O
